Reference: patent US20250197356A1, “METHOD FOR SYNTHESIZING NUCIFERINE OR DERIVATIVE THEREOF, DERIVATIVE OF NUCIFERINE AND USE THEREOF” (HUAQIAO UNIVERSITY, priority 2022, published 2025)

Key:
[1] = system: hyperlipidemia rats; assay: Liver and kidney indexes in high-fat diet hyperlipidemia rats; type: in vivo, SD rats; conditions: 20 mg/(kg d) by gastric gavage, 4 weeks, x ± s, n = 9
From the text: (§1) Animals: 54 SPF-grade SD rats, weighing 120±10 g, provided by Laboratory Animal Business Department, Shanghai Family Planning Research Institute, China, Animal license number: SCXK(Shanghai)2018-0006.
(§2) Modeling scheme: 54 adult rats of 120±10 g were selected and fed adaptively for three days. They were then randomly divided to 6 groups, 9 animals for each group. They were blank control group, model group, positive control group, nuciferine group, and nuciferine structural modification group. The blank control group was fed with normal diet. […] The feeding and modeling time was 5 weeks.
(§3) Liver tissue sample collection: the rats were killed by dislocation, and the liver was taken out immediately after death, which was observed by naked eye to find out whether there was abnormal color and lesions, and was then rinsed with ice normal saline. The left lobe of the liver was quickly cut into small pieces and fixed in 10% formaldehyde overnight for sectioning. The tissue of the right lobe of the liver was quickly wrapped in tin box and stored at −80° C. for later use.

[2] = system: hyperlipidemia rats; assay: Serum biochemical indicators in high-fat diet hyperlipidemia rats; type: in vivo, SD rats; conditions: for LDL-C / TC / TG / ALT (U/L) / AST (U/L) / Bun / Cr: serum, 20 mg/(kg d) by gastric gavage, 4 weeks; for ALT (U/L) / AST (U/L) / Bun / Cr: x ± s, n = 9
From the text: as §1
(§4) Drug to be tested: Nuciferine purchased from Shanghai Aladdin Biochemical Technology Co., Ltd., China, and its derivatives (purity >99%) that were synthesized in the laboratory by the methods of Examples 2-7.
(§5) Other reagents: AST, ALT, TC, TG, NEFA, Bun, Cr, CAT, GSH-Px, GSH, MDA test kits, purchased from Nanjing Jiancheng Bioengineering Institute, China; HL and PL test kits, purchased from Jianglai Biotechnology Co., Ltd., China; experimental reagents such as anhydrous ethanol, xylene, isopropanol neutral gum, purchased from Sinopharm Chemical Reagent Co., Ltd., China; HE dye solution, DAB color development agent, and oil red O dye solution, purchased from KeyGEN Biotechnology Co., Ltd, China; Antibodies IL-6 and TNF-α, purchased from Abcam Limited.
as §2, with “weeks. Within 4 weeks after modeling, continuous administration was performed: the blank control group and model group were given 0.2 mL of distilled water by gastric gavage; the positive control group was administrated 20 mg/(kg d) of simvastatin; while the treatment group was administrated 20 mg/(kg d) of nuciferine or 20 mg/(kg d) of a derivative of nuciferine (compounds 6a-6f).” for “weeks.”
Blood sample collection: 24 h after the last gastric gavage administration, eyeballs were taken out and blood was drawn. Whole blood was collected in an EP tube, and centrifuged at 3000 r/min and 4° C. for 10 min, and the supernatant was collected and stored at −20° C. for blood biochemical indicator test.
(§6) Biochemical indicator determination: indicators AST, ALT, TC, TG, NEFA, Bun, Cr, CAT, GSH-Px, GSH, MDA, HL, PL were determined according to the instructions of the kits.

[3] = system: hyperlipidemia rats; assay: Liver tissue homogenate biochemical indicators in high-fat diet hyperlipidemia rats; type: in vivo, SD rats; conditions: for CAT (U/mgprot) / GSH (μmol/gprot) / GSH-Px (U/mgprot) / HL (U/mgprot) / LPL (U/mgprot) / MDA (nmol/mgprot) / NEFA (μmol/g prot) / TG (mmol/g prot): liver tissue, 20 mg/(kg d) by gastric gavage, 4 weeks, x ± s, n = 9
From the text: as §1, §4, §5
as §2, with “weeks. Within 4 weeks after modeling, continuous administration was performed: the blank control group and model group were given 0.2 mL of distilled water by gastric gavage; the positive control group was administrated 20 mg/(kg d) of simvastatin; while the treatment group was administrated 20 mg/(kg d) of nuciferine or 20 mg/(kg d) of a derivative of nuciferine (compounds 6a-6f).” for “weeks.”
as §3
Preparation of 10% liver homogenate: the liver wrapped in tin box and stored in the ultra-low temperature freezer at −80° C. was taken out, and quickly placed on an ice box. 0.2 g of liver tissue was accurately taken, and ice normal saline with a volume 9 times that of the liver issue was added thereto. 10% tissue homogenate was formed by grounding and mixing, and then centrifuged at 3000 r/min and 4° C. for 10 min. The supernatant was collected for later use.
as §6

[4] = system: hyperlipidemia rats; assay: Liver appearance and HE histopathological observation in hyperlipidemia rats; type: in vivo, SD rats; conditions: compared with the model group, 20 mg/(kg d)
From the text: as §1, §2, §3

[5] = system: hyperlipidemia rats; assay: Oil red O staining of liver in hyperlipidemia rats; type: in vivo, SD rats; conditions: compared with the model group, 20 mg/(kg d)
From the text: as §1, §4
as §2, with “weeks. Within 4 weeks after modeling, continuous administration was performed: the blank control group and model group were given 0.2 mL of distilled water by gastric gavage; the positive control group was administrated 20 mg/(kg d) of simvastatin; while the treatment group was administrated 20 mg/(kg d) of nuciferine or 20 mg/(kg d) of a derivative of nuciferine (compounds 6a-6f). […]” for “weeks.”

[6] = system: IL-6; assay: Immunohistochemistry of liver of hyperlipidemia rats; type: in vivo, SD rats; conditions: compared with the model group, 20 mg/(kg d)
From the text: as §1, §4, §5
as §2, with “weeks. […]” for “weeks.”

[7] = system: TNF-α; assay: as above; type: in vivo, SD rats; conditions: compared with the model group, 20 mg/(kg d)
From the text: as §1, §4, §5
as §2, with “weeks. […]” for “weeks.”

[8] = TCMSP database, screening threshold OB ≥30%; cited from earlier work

Compound	Kidney index (%) [1]	Liver index (%) [1]	LDL-C [2]	TC [2]	TG [2]	ALT (U/L) [2]	AST (U/L) [2]	Bun [2]	Cr [2]	CAT (U/mgprot) [3]	GSH (μmol/gprot) [3]	GSH-Px (U/mgprot) [3]	HL (U/mgprot) [3]	LPL (U/mgprot) [3]	MDA (nmol/mgprot) [3]	NEFA (μmol/g prot) [3]	TG (mmol/g prot) [3]	also measured
COc1cc2c3c(c1OC)-c1ccccc1C[C@H]3N(C)CC2 [Nuciferine]	0.68 ± 0.04 %	4.52 ± 0.30 %	0.53 ± 0.12 mmol/L	1.90 ± 0.19 mmol/L	0.48 ± 0.04 mmol/L	13.97 ± 5.71 U/L	6.43 ± 1.56 U/L	3.27 ± 0.22 mmol/L	52.59 ± 4.81 µmol/L	28.44 ± 3.34 U/mgprot	377.68 ± 137.77 μmol/gprot	720.65 ± 59.57 U/mgprot	0.47 ± 0.05 U/mgprot	0.43 ± 0.07 U/mgprot	0.92 ± 0.15 nmol/mgprot	99.87 ± 8.25 μmol/g prot	0.08 ± 0.01 mmol/g prot	Content of HDL-C in the serum, result in words ([2]; compared with the model group): significantly increases; Serum AST and ALT contents, result in words ([2]; compared with the model group): best effect; HL and LPL contents in liver tissue, result in words ([3]; compared with the model group): best effect; NEFA content in liver tissue, result in words ([3]; compared with the model group): significantly decreases; HE-stained liver tissue: lipid vacuoles and inflammatory infiltration (FIG. 9) [4]: lipid vacuoles in hepatocytes are significantly reduced; Oil red O-stained liver sections: lipid accumulation (FIG. 10) [5]: reduced fat accumulation; Expression level of IL-6 in liver (FIG. 11) [6]: decrease; Expression level of TNF-α in liver (FIG. 12) [7]: decrease; OB/% (oral bioavailability) [8]: 34.43%
COc1cc2c3c(c1OC)-c1ccccc1CC3N(C(=O)c1ccc(F)cc1)CC2 (centres unmarked) [Compound 6b, p-Fluorobenzoylnuciferine]	0.68 ± 0.02 %	4.58 ± 0.23 %	0.68 ± 0.16 mmol/L	2.01 ± 0.14 mmol/L	0.57 ± 0.08 mmol/L	16.43 ± 9.51 U/L	7.91 ± 2.21 U/L	3.48 ± 0.24 mmol/L	53.90 ± 1.81 µmol/L	25.90 ± 4.29 U/mgprot	365.04 ± 71.78 μmol/gprot	532.14 ± 30.92 U/mgprot	0.51 ± 0.05 U/mgprot	0.29 ± 0.10 U/mgprot	1.03 ± 0.33 nmol/mgprot	106.32 ± 22.95 μmol/g prot	0.13 ± 0.02 mmol/g prot	Liver appearance (photographs, FIG. 8) [4]: more brittle
